In ChEMBL document CHEMBL2321874, “Small-molecular, non-peptide, non-ATP-competitive polo-like kinase 1 (Plk1) inhibitors with a terphenyl skeleton” (Bioorg Med Chem, 2013):
In brackets after ≈: the same amount, converted by molar mass.

Assays:
[1] = target: Serine/threonine-protein kinase PLK1 (Homo sapiens) (UniProt P53350); assay: Inhibition of human recombinant N-terminal GST-tagged Plk1 at 250 uM
[2] = Solubility of the compound; format: physicochemical

Chain of Serine/threonine-protein kinase PLK1 (Homo sapiens) (P53350 whole entry): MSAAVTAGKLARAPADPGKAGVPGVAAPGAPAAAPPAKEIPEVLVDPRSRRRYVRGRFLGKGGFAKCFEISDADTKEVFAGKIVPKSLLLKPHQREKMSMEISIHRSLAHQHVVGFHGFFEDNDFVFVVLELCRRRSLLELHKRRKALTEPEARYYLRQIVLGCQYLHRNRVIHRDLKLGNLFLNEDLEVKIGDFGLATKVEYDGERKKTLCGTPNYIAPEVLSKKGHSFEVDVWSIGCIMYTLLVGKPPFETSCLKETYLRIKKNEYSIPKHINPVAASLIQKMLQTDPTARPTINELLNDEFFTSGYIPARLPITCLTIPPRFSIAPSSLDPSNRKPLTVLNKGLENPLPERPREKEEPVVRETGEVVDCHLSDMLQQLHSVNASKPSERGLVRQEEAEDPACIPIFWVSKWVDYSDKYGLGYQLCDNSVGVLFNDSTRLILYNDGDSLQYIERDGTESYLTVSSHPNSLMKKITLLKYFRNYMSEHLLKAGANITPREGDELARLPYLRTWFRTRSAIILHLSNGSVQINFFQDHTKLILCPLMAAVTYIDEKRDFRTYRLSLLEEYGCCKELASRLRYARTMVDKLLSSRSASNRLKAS

Row | inhibition [1] [%] | solubility [2] [µM] | SMILES
1 | 0 | – | CNC(=O)Cc1ccc(-c2cc(C)cc(-c3ccc(CC(=O)NC)cc3)c2OCCO)cc1
2 | – | 100 (≈ 35.4 µg/mL) | Cc1cc(-c2ccc(C#N)cc2)c(OCCO)c(-c2ccc(C#N)cc2)c1
